# According to the RepoRT retention time repository (doi:10.1016/j.aca.2012.07.013):
# Assay: RP, 50 × 2.1 mm, 1.7 µm, 0.5 mL/min, estimated dead time 0.22 min; A: 98% water + 2% acetonitrile + 0.1% formic acid, pH 3; B: 2% water + 98% acetonitrile + 0.1% formic acid, pH 3; gradient (min/%B) 0/0 0.5/0 4/60 8/100 9/100 9.2/0 10/0
# Settings: stereoisomer not certain
row,LC retention time,Structure (SMILES)
1,4.71 min,CCCCCC=CCC=CCC=CCCCCCCC(=O)OCC(O)COP(=O)(O)OCCN (configuration not stated) [LPE (20:3)]
2,3.78 min,CC(CCC(=O)NCC(=O)O)C1CCC2C3CCC4CC(O)CCC4(C)C3CC(O)C12C (configuration not stated) [glycodeoxycholic acid (GDCA)]
3,2.57 min,"O=c1cc2oc3ccccc3oc-2cc1=O [dibenzo[1,4]dioxin-2,3-dione]"
4,4.67 min,CCCCCCCCCCCCCCC(=O)OCC(O)COP(=O)([O-])OCC[N+](C)(C)C (configuration not stated) [LPC (15:0)]
5,4.52 min,CCCCCCCCCCCCCCCCCCOCC(O)COP(=O)(O)OCC(N)C(=O)O (configuration not stated) [PS (O-18:0/0:0)]
6,5.3 min,CCCCCCCCCCCCCCCCC(=O)OCC(O)COP(=O)([O-])OCC[N+](C)(C)C (configuration not stated) [LPC (17:0)]
7,4.72 min,CCC=CCC=CCC=CCC=CCC=CCC=CCCC(=O)OCC(O)COP(=O)([O-])OCC[N+](C)(C)C (configuration not stated) [LPC (22:6)]
8,2.39 min,c1ccc(CSSCc2ccccc2)cc1 [dibenzyl disulfide]

# Further lines, the compound ahead of its results:
row,Structure (SMILES),LC retention time
1,CC(CCC(=O)NCC(=O)O)C1CCC2C3C(O)CC4CC(O)CCC4(C)C3CC(O)C12C (configuration not stated) [glycocholic acid (GCA)],3.36 min
2,Oc1ccc(C(c2ccc(O)cc2)(C(F)(F)F)C(F)(F)F)cc1 [bisphenol AF],0.397 min
3,"CCC=CCC=CCC=CCC=CCCCCCCC(=O)OCC(O)COP(=O)(O)OCCN (configuration not stated) [LPE (20:4(8Z,11Z,14Z,17Z)/0:0)]",4.74 min
4,CC(CCC(=O)NCC(=O)O)C1CCC2C3C(O)CC4CC(O)CCC4(C)C3CCC12C (configuration not stated) [glycochenodeoxycholic acid (GCDCA)],3.78 min
5,CCCCCCCCCCCCCC=CC(O)C([NH3+])COP(=O)([O-])O (configuration not stated) [sphingosine 1-phosphate],4.36 min
6,Nc1ccc(C(F)(F)F)cc1 [4-trifluoro methylaniline],0.383 min
7,CC(CCC(=O)NCC(=O)O)C1CCC2C3C(O)CC4CC(OS(=O)(=O)O)CCC4(C)C3CCC12C (configuration not stated) [glycochenodeoxycholate-3-sulfate],3.38 min
8,"CCC=CCC=CCC=CCC=CCC=CCC=CCCC(=O)OC(CO)COP(=O)(O)OCCN (configuration not stated) [LPE (0:0/22:6(4Z,7Z,10Z,13Z,16Z,19Z))]",4.71 min
9,CCCCCCCCCCCCCCCC(=O)OCC(O)COP(=O)([O-])OCC[N+](C)(C)C (configuration not stated) [LPC (16:0)],4.98 min
10,CC(CCC(=O)NCCS(=O)(=O)O)C1CCC2C3C(O)CC4CC(O)CCC4(C)C3CC(O)C12C (configuration not stated) [taurocholic acid (TCA)],3.08 min
11,"CCCCCC=CCC=CCC=CCC=CCCCC(=O)OC(CO)COP(=O)(O)OCCN (configuration not stated) [LPE (0:0/20:4(5Z,8Z,11Z,14Z)]",4.74 min
12,"CCC=CCC=CCC=CCC=CCCCCCCC(=O)OC(CO)COP(=O)(O)OCCN (configuration not stated) [LPE (0:0/20:4(8Z,11Z,14Z,17Z))]",4.74 min
13,CCCCCCCCCCCCCCCCCC(=O)OCC(O)COP(=O)([O-])OCC[N+](C)(C)C (configuration not stated) [LPC (18:0)],5.64 min
14,CC(CCC(=O)NCCS(=O)(=O)O)C1CCC2C3C(O)CC4CC(O)CCC4(C)C3CCC12C (configuration not stated) [taurochenodeoxycholic acid (TCDCA)],3.45 min
